Patent US20230374505A1, “Human XIST Antisense Oligonucleotides for X Reactivation Therapy” (The General Hospital Corporation, priority 2020, published 2023)

Tests used:
cell culture = assay: Tolerable Aza concentration in cell culture; format: cell-based
[1] = tested on: Xi reactivation in the brain; assay: Aza/decitabine three pulse treatment, Xi reactivation in the brain; format: in vivo, mouse; conditions: three short pulses delivered systemically; after two weeks
Text: ASO drugs are generally more specific and have the advantage that information on pharmacokinetics and toxicity studies for chemically similar ASOs is transferable and cumulative. Thus, ASOs may have a more favorable path to regulatory approval. Small molecules generally have lower selectivity and may face steeper hurdles in the approval process within the US Food and Drug Administration (FDA). By mixing modalities, our approach may potentially anticipate a more streamlined approach to FDA approval. […] Unlike LNA-based ASOs which have tissue half-lives of several weeks (Wahlestedt C et al. Potent and nontoxic antisense oligonucleotides containing locked nucleic acids. Proc Natl Acad Sci USA. 2000; 97:5633-5638), Aza is known to have a very short half-life (t1/2<1h in plasma) (Welch J S et al. TP53 and decitabine in acute myeloid leukemia and myelodysplastic syndromes. N Engl J Med. 2016; 375:2023-2036). However, once DNA is demethylated, the state may be stable (Kordasiewicz H B et al. Sustained therapeutic reversal of Huntington's disease by transient repression of huntingtin synthesis. Neuron. 2012; 74:1031-1044). Future work will determine the duration of the effect and whether periodic boosters of either Aza or ASO might be necessary to maintain the reactivation.
Decitabine was administered to the XIST2lox, Nestin-Cre F2 generation, by IP injection at 5 weeks old. […]

[2] = in plasma; cited from earlier work
[3] = tested on: human CDKL5 patient fibroblast line; assay: Toxicity of nanaomycin to CDKL5 patient fibroblasts; format: cell-based; conditions: added every 2 days, 5 days treatment; data not shown
Protocol: Experiments were also conducted to test Xi reactivation in human CDKL5 patient's fibroblast with XIST ASO-6B and DNMT3 inhibitor, Nanaomycin, co-treatment. A human CDKL5 patient fibroblast line carrying mutation on the Xa was treated with an ASO to XIST and a DNMT3i, nanaomycin A. After 5 days of treatment with 20 nM XIST ASO-6B (added once at day 0; lipofectamine transfection) and 25 nM-1 uM nanaomycin A (added every 2 days; days 0, 2, and 4), cells were harvested for qPCR analysis (FIG. 10A). Nanaomycin is very toxic, and the cells were dead in concentration above 250 nM (data not shown).

CDKL5 wt allele (Xi) = assay: CDKL5 wt allele reactivation in human CDKL5 patient fibroblasts, allele-specific qPCR; format: cell-based
Protocol: FIGS. 6A-6B. XIST ASO (ASO-6B) and DNMTi co-treatment in CDKL5 patient fibroblast. (A) A schematic of treatment of a human CDKL5 patient fibroblast line carrying mutation on the Xa. After 3 days of treatment with 100 nM XIST ASOs (lipofectamine transfection) and 0.5 uM Aza (added every 2 days), harvested cells underwent qPCR analysis. […] CDKL5 wt reactivation was normalized to CDKL5mut expression from the Xa chromosome, normalized to RPL13a.
(§1) FIGS. 8A-8C. Xi reactivation in human CDKL5 patient's fibroblast with XIST ASO+/−DNMTi (Decitabine, Azacitidine, RG-108). (A) A human CDKL5 patient fibroblast line carrying mutation on the Xa was treated with ASOs to XIST and three DNMTi. On day 0, cells were treated with 20 nM of XIST ASO-6B, and 1 uM of each DNMTi every 2 days. On day 7, cells were harvested for qPCR analysis. […] XIST expression was relative to untreated levels, normalized to RPL13a. […] CDKL5 wt reactivation was normalized to CDKL5mut expression from the Xa chromosome.
FIGS. 9A-9C. Xi reactivation in human CDKL5 patient's fibroblast with XIST ASO-6B and DNMT inhibitor (SGI-1027) co-treatment. (A) A human CDKL5 patient fibroblast line carrying mutation on the Xa was treated with an ASO to XIST and an DNMTi. […]

XIST = XIST expression in CDKL5 patient fibroblasts after XIST ASO with or without DNMTi, qPCR; format: cell-based, human
Protocol: as §1, with “days.” for “days. On day 7, cells were harvested for qPCR analysis.”
FIGS. 11A-11B. Triplicate experiment showing Xi reactivation in human CDKL5 patient's fibroblast with XIST ASO+/−DNMTi (Decitabine, Azacitidine, RG-108). […] CDKL5 wt reactivation was normalized to CDKL5mut expression from the Xa chromosome. Data shown are the average of three experiments; error bars are standard deviation.
RNA was isolated by Trizol (Life Technologies) extraction (tissues were snap frozen in liquid nitrogen and ground with pestle and mortar or put in Trizol and homogenized using a Qiagen TissueLyser), treated with TurboDNAse for 30 min at 37° C. […] The relative efficiency of the reactivations was calculated by comparing to GAPDH or TBP RNA as the internal control in mouse experiment. The relative efficiency of the reactivations was calculated by comparing to RPL13a as the internal control in human cells. […]

Nc1ncn([C@H]2C[C@H](O)[C@@H](CO)O2)c(=O)n1 [Aza, 5-aza-2′-deoxycytidine]
tolerable concentration in cell culture (cell culture): 0.5 µM
Xi reactivation in the brain [1]: sufficient to induce Xi reactivation
t1/2 [2]: < 1 h

CC1OC(CC(=O)O)CC2=C1C(=O)c1c(O)cccc1C2=O (centres unmarked) [Nanaomycin, nanaomycin A]
concentration above which the cells were dead [3]: above 250 nM

ASO 6B: XIST ASO AGAAGTCTGGCACATCTGTG, SEQ ID NO:11 (LNA-flanked DNA gapmer, wing lengths and linkages not given here, further chemistry not given here)
CDKL5 reactivation (CDKL5 wt allele (Xi); 20 nM ASO 6B at day 0, 1 uM Decitabine, 0.5 uM Azacitidine or 1 uM RG-108 at days 0 and 2, harvested Day 4, average of three experiments (FIG. 11B)): 0.13%
CDKL5 reactivation (CDKL5 wt allele (Xi); 20 nM ASO-6B at day 0, 1 uM DNMTi every 2 days, harvested day 7 (FIG. 8C)): 0.7%
XIST expression (XIST; 20 nM ASO-6B with and without 1 uM DNMTi, 7 days (FIG. 8B)): decreased
XIST expression (XIST; 20 nM ASO-6B with or without DNMTi, 4 days (FIG. 11A)): decreased
